Source: patent publication US20190040584A1, “Use of DIPA-Esterquat Debonder For Tissue And Fluff Pulp Manufacturing” (Evonik Degussa GmbH, priority 2016, published 2019)

Columns and labels:
Fish = Fish aqua tox (OECD 203); format: in vivo
Daphnia magna = conditions: in vivo

## dialkyldimethyl ammonium chloride [Adogen 442]
Fish
  Fish; aqua tox (203); 96 h; LC50: 10.1 µg/mL
Daphnia magna
  Aquatoxicity, invertebrates, Daphnia magna; (202) 48 h; EC50: 0.19 µg/mL
